Consider 28 compounds from patent publication US20070027201A1 (Wyeth, priority 2005, published 2007).

For this experiment, the target named is T1, progesterone receptor (Homo sapiens, UniProt P06401).
T1 sequence (P06401 1-933): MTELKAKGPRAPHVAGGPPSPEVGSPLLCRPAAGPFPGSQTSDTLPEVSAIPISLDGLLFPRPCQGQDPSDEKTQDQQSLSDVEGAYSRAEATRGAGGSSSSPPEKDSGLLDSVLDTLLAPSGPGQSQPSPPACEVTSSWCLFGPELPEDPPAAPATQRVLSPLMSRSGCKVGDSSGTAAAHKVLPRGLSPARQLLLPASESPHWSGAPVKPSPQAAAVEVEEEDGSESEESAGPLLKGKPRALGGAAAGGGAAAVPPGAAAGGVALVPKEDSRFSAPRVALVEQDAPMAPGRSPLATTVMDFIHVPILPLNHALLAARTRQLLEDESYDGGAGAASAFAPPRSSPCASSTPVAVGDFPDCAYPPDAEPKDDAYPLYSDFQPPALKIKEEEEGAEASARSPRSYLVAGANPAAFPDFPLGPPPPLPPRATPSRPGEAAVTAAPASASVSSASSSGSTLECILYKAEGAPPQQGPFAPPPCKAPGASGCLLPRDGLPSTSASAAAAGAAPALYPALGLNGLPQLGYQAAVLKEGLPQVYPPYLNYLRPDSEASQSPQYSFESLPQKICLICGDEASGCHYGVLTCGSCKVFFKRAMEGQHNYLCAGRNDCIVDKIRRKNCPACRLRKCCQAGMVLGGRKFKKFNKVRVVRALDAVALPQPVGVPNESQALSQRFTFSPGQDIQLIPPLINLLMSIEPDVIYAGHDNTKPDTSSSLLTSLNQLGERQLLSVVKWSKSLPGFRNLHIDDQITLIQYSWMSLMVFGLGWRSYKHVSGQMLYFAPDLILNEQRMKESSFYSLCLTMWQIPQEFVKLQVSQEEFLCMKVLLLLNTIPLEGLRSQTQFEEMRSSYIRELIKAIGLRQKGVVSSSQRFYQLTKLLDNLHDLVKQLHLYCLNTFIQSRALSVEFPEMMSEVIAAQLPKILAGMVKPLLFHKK
As to the kind of experiment: T47D alkaline phosphatase assay for progesterone receptor modulator (antagonist) activity. In kind it is cell-based. Also noted: endogenous in cells; host or cells: T47D cells. The conditions noted are these: T47D cells; for IC50: antagonist mode in the presence of 1 nM progesterone, 24 hours; for Antagonist Efficacy: in the presence of 1 nM progesterone. How it is done: An assay was performed to identify compounds having progesterone receptor modulator activity. This assay identifies progestins or antiprogestins by determining a compound's effect on alkaline phosphatase activity in T47D cells.
Culture medium: DMEM:F12 (1:1) (GIBCO, BRL) supplemented with 5% (v/v) charcoal stripped fetal bovine serum (not heat-inactivated), 100 U/mL penicillin, 100 μg/mL streptomycin, and 2 mM the GlutaMax® reagent (GIBCO, BRL).
Alkaline phosphatase assay buffer: • I. 0.1M Tris-HCl, pH 9.8, containing 0.2% the Triton™ X-100 reagent • II. 0.1M Tris-HCl, pH 9.8, containing 4 mM p-nitrophenyl phosphate (Sigma).
Frozen T47D cells are thawed in a 37° C. water bath and diluted to 280,000 cells/mL in culture medium. To each well in a 96-well plate (Falcon, Becton Dickinson Labware), 180 μL of diluted cell suspension is added.
Twenty μL of reference or test compounds diluted in the culture medium is then added to each well. When testing for progestin antagonist activity, reference antiprogestins or test compounds are added in the presence of 1 nM progesterone. The cells are incubated at 37° C. in a 5% CO2/humidified atmosphere for 24 hours.
For high throughput screening, one concentration of each compound will be tested at 0.3 μg/mL. Based on an average molecular weight of 300 g/mol for the compounds in the library, the concentration is approximately 1 μM. Subsequently, active compounds will be tested in dose response assays to determine EC50 and IC50.
At the end of treatment, the medium is removed from the plate. Fifty μL of assay buffer I is added to each well. The plates are shaken in a titer plate shaker for 15 minutes. Then 150 μL of assay buffer II is added to each well. Optical density measurements are taken at 5 minute intervals for 30 minutes at a test wavelength of 405 nm.
Analysis of dose-response data. For reference and test compounds, a dose response curve is generated for dose (x-axis) vs. the rate of enzyme reaction (slope) (y-axis). Square root-transformed data are used for analysis of variance and nonlinear dose response curve fitting for both agonist and antagonist modes. Huber weighting is used to down-weight the effects of outliers. EC50 or IC50 values are calculated from the retransformed values. The JMP® software (SAS Institute, Inc.) is used for both one-way analysis of variance and non-linear dose response analysis in both single dose and dose response studies.
Progesterone and trimegestone are reference progestins and RU486 is the reference antiprogestin. All reference compounds are run in full dose response curves and the EC50 and IC50 values are calculated.
In the table provided above, the IC50 values show the relative progesterone receptor antagonist activity in this assay. Lower numbers are indicative of higher potency, i.e., greater PR antagonist activity. Further, the assay has a standard deviation of about ±6.

One may read the IC50 as the concentration that inhibits the measured activity by half. The inhibition is the drop in the measured response relative to a control, in per cent.

Turning to `COc1cc(-c2ccc(C#N)n2C)ccc1NC#N` [Example 35], the half-maximal inhibitory concentration (IC50) was under 300 nM.

Turning to `COc1cc(NC#N)ccc1-c1ccc(C#N)n1C` [Example 36, [4-(5-cyano-1-methyl-1H-pyrrol-2-yl)-3-methoxyphenyl]cyanamide], the IC50 stood at 83.9 nM. In the case of `Cn1c(C#N)ccc1-c1ccc(NS(C)(=O)=O)cc1F` [Example 40, N-[4-(5-cyano-1-methyl-1H-pyrrol-2-yl)-3-fluorophenyl]methanesulfonamide], the “Active Dose” value was determined as 10 µM and the IC50 came to 18.3 nM. The like results for `CCS(=O)(=O)Nc1ccc(-c2ccc(C#N)n2C)c(F)c1` [Example 41, N-[4-(5-cyano-1-methyl-1H-pyrrol-2-yl)-3-fluorophenyl]ethanesulfonamide] were, in that order, 10 µM and 3.8 nM. As for `CCCS(=O)(=O)Nc1ccc(-c2ccc(C#N)n2C)c(F)c1` [Example 42, N-[4-(5-cyano-1-methyl-1H-pyrrol-2-yl)-3-fluorophenyl]propane-1-sulfonamide], the half-inhibitory concentration (IC50) was 3.5 nM. On the same count and under the same terms, the value for `CCCCS(=O)(=O)Nc1ccc(-c2ccc(C#N)n2C)c(F)c1` [Example 43, N-[4-(5-cyano-1-methyl-1H-pyrrol-2-yl)-3-fluorophenyl]butane-1-sulfonamide] was 6.6 nM. With `CC(C)S(=O)(=O)Nc1ccc(-c2ccc(C#N)n2C)c(F)c1` [Example 44, N-[4-(5-cyano-1-methyl-1H-pyrrol-2-yl)-3-fluorophenyl]propane-2-sulfonamide], the “Active Dose” value turned out to be 10 µM and the 50% inhibitory concentration (IC50) was found to be 9.3 nM. The like results for `Cn1c(C#N)ccc1-c1cc(F)c(NS(C)(=O)=O)cc1F` [Example 46, N-[4-(5-cyano-1-methyl-1H-pyrrol-2-yl)-2,5-difluorophenyl]-methane-sulfonamide] were, in that order, 10 µM and 39.8 nM. Take `CCS(=O)(=O)Nc1cc(F)c(-c2ccc(C#N)n2C)cc1F` [Example 47, N-[4-(5-cyano-1-methyl-1H-pyrrol-2-yl)-2,5-difluorophenyl]ethane-sulfonamide]: the IC50 was 22.1 nM.

Regarding `CCCCS(=O)(=O)Nc1cc(F)c(-c2ccc(C#N)n2C)cc1F` [Example 49, N-[4-(5-cyano-1-methyl-1H-pyrrol-2-yl)-2,5-difluorophenyl]butane-1-sulfonamide], the IC50 came to 267 nM. The same measure, in the same setting: the value for `CC(C)S(=O)(=O)Nc1cc(F)c(-c2ccc(C#N)n2C)cc1F` [Example 50, N-[4-(5-cyano-1-methyl-1H-pyrrol-2-yl)-2,5-difluorophenyl]propane-2-sulfonamide] was 231 nM.

With `Cn1c(C#N)ccc1-c1ccc(NS(C)(=O)=O)cc1C(F)(F)F` [Example 52, N-[4-(5-cyano-1-methyl-1H-pyrrol-2-yl)-3-(trifluoromethyl)phenyl]methane-sulfonamide], the IC50 was determined as 13.4 nM. Same read-out and setting: the value for `CCS(=O)(=O)Nc1ccc(-c2ccc(C#N)n2C)c(C(F)(F)F)c1` [Example 53, N-[4-(5-cyano-1-methyl-1H-pyrrol-2-yl)-3-(trifluoromethyl)phenyl]ethane-sulfonamide] was 10.2 nM; that for `CCCS(=O)(=O)Nc1ccc(-c2ccc(C#N)n2C)c(C(F)(F)F)c1` [Example 54, N-[4-(5-cyano-1-methyl-1H-pyrrol-2-yl)-3-(trifluoromethyl)phenyl]propane-1-sulfonamide] was 9.4 nM; that for `CCCCS(=O)(=O)Nc1ccc(-c2ccc(C#N)n2C)c(C(F)(F)F)c1` [Example 55, N-[4-(5-cyano-1-methyl-1H-pyrrol-2-yl)-3-(trifluoromethyl)phenyl]butane-1-sulfonamide] was 53.7 nM. Same read-out and setting: the value for `CC(C)S(=O)(=O)Nc1ccc(-c2ccc(C#N)n2C)c(C(F)(F)F)c1` [Example 56, N-[4-(5-cyano-1-methyl-1H-pyrrol-2-yl)-3-(trifluoromethyl)phenyl]propane-2-sulfonamide] was 25.2 nM; that for `Cn1c(C#N)ccc1-c1ccc(N2CCCS2(=O)=O)cc1` [Example 57, 5-[4-(1,1-dioxidoisothiazolidin-2-yl)phenyl]-1-methyl-1H-pyrrole-2-carbonitrile] was 180 nM. The same measure, in the same setting: the value for `Cn1c(C#N)ccc1-c1ccc(NS(C)(=O)=O)c(OC(F)(F)F)c1` [Example 59, N-[4-(5-cyano-1-methyl-1H-pyrrol-2-yl)-2-(trifluoromethoxy)phenyl]methane-sulfonamide] was 32.2 nM; that for `CCS(=O)(=O)Nc1ccc(-c2ccc(C#N)n2C)cc1OC(F)(F)F` [Example 60, N-[4-(5-cyano-1-methyl-1H-pyrrol-2-yl)-2-(trifluoromethoxy)phenyl]ethane-sulfonamide] was 35.8 nM.

For `CCCS(=O)(=O)Nc1ccc(-c2ccc(C#N)n2C)cc1OC(F)(F)F` [Example 61, N-[4-(5-cyano-1-methyl-1H-pyrrol-2-yl)-2-(trifluoromethoxy)phenyl]propane-1-sulfonamide], the IC50 worked out at 40.7 nM. `CCS(=O)(=O)Nc1ccc(-c2ccc(C#N)[nH]2)cc1` [Example 65, N-[4-(5-cyano-1H-pyrrol-2-yl)phenyl]ethanesulfonamide]: the 50% inhibitory concentration (IC50) was 68.6 nM and the “Antagonist Efficacy” value came to 85%. Regarding `CCn1c(C#N)ccc1-c1ccc(NS(=O)(=O)CC)cc1` [Example 66, N-[4-(5-cyano-1-ethyl-1H-pyrrol-2-yl)phenyl]ethanesulfonamide], the IC50 amounted to 84.1 nM and the “Antagonist Efficacy” value is given as 80%. With `CCCn1c(C#N)ccc1-c1ccc(NS(=O)(=O)CC)cc1` [Example 67, N-[4-(5-cyano-1-propyl-1H-pyrrol-2-yl)phenyl]ethanesulfonamide], the half-inhibitory concentration (IC50) worked out at 721 nM. `CCCCn1c(C#N)ccc1-c1ccc(NS(=O)(=O)CC)cc1` [Example 68, N-[4-(1-butyl-5-cyano-1H-pyrrol-2-yl)phenyl]ethanesulfonamide]: the IC50 is 546 nM. Still for that read-out and setting: then `C=CCn1c(C#N)ccc1-c1ccc(NS(=O)(=O)CC)cc1` [Example 69, N-[4-(1-allyl-5-cyano-1H-pyrrol-2-yl)phenyl]ethanesulfonamide], with 600 nM. Regarding `C#CCn1c(C#N)ccc1-c1ccc(NS(=O)(=O)CC)cc1` [Example 70, N-[4-(5-cyano-1-prop-2-yn-1-yl-1H-pyrrol-2-yl)phenyl]ethanesulfonamide], the IC50 turned out to be 797 nM. Turning to `CCS(=O)(=O)Nc1ccc(-c2ccc(C#N)n2CCCc2ccccc2)cc1` [Example 71, N-{4-[5-cyano-1-(3-phenylpropyl)-1H-pyrrol-2-yl]phenyl}ethanesulfonamide], the “Active Dose” value was 3 µM. This compound gave an inhibition at 3 µM (at Active Dose 3000 nM) of 15%. Take `Cn1c(C#N)ccc1-c1ccc(NS(C)(=O)=O)cc1C#N` [Example 74, N-[3-cyano-4-(5-cyano-1-methyl-1H-pyrrol-2-yl)phenyl]methanesulfonamide]: the IC50 amounted to 198 nM.
